Series [1] can be described thus: Solubility in Krebs-Henseleit buffer. The following applies: Krebs-Henseleit buffer with glucose, palmitate, bovine serum albumin, insulin. The format is physicochemical.
The nature of series [2]: Solubility in water, LC-MS absorbance peak area at 254 nm. The format is physicochemical. The following applies: for Area (Integration of Absorbance Peaks): water pH 7.1, ambient temperature, 254 nm. How it is done:
Each sample of Compound A & zopolrestat were placed, separately, in water (MQW ultra nanopure) at ambient temperature and vortexed for 3 minutes. The aliquots were then filtered through a tightly-packed cotton plug (placed in a pipette) to remove any residual solids. The attempted concentrations of the respective solutions of Compound A and zopolrestat made were 0.05 mg/mL, 0.1 mg/mL, 0.5 mg/mL, 1.0 mg/mL, 5.0 mg/mL, and 10.0 mg/mL. The pH of the water used was 7.1 (measured electronically by an Orion perpHect LogR Meter Model # 370).
The filtered samples were run through a binary gradient (program: 5%-100% MeCN over 30 mins) on a LC-MS (Shimadzu LCMS-2010A Liquid Chromatography Mass Spectrometer, reverse-phase column). A 5 µL volume of each sample solution was injected for each run. Each trace contained a peak (for Compound A, TR approx. 14.070 mins; for zopolrestat, TR approx. 16.666 mins) measured at a wavelength of 254 nm for which the respective parent ion masses were observed.
By comparing the absorbance areas under the peaks corresponding to Compound A & zopolrestat in each water solution made (Table 1), a solubility curve for each compound was generated (Fig. 1). […] Table 1. Integration of Absorbance Peaks for Various Concentrations of Compounds.

Series [3] concerns the target human recombinant aldose reductase (Homo sapiens, UniProt P15121). Nature of the series: biochemical. The protocol: The rcductasc activity of Compound A and zopolrestat were spectrophotometrically assayed by following the decrease of NADPH at 25°C for 4 min as described in Sato, S. (1992), "Rat kidney aldose reductase and aldehyde reductase and polyolproduction in rat kidney" Am. J. Physiol. 263, F799.F805, incorporated by reference herein in its entirety. [drawing 59]
Briefly, the reaction mixture (total volume 1 ml) contained 0.1 mM NADPH, 100 mM substrate (DL-glyceraldehyde or L-xylose) and human recombinant aldose reductase (100 mU) in 0.1 M phosphate buffer, pH 6.2. The head to head experiment was carried out in a microplate assay for AR inhibition using D-Glyceraldehyde and NADPH and the absorbance changes were monitored at 340nm and % inhibition was calculated for ARIs at concentrations ranging from 0.1 nM to 100 µM (Table 2 and Figure 2). Data is presented as mean ± standard deviation and is an average of 5 separate runs. The reaction was started by adding the substrate (glyceraldehyde or xylose) as well as the same reaction mixture in which the substrate replaced by deionized water was used as a control. One enzyme unit (U) was defined as the activity consuming 1 µmole of NADPH per min at 25 °C. Table 2. Aldose Reductase Activity for Zopolrestat and Compound A.

For series [4], the system named is isolated rat heart. Nature of the series: Ex vivo isovolumic isolated rat heart, ischemia reperfusion (I/R) injury. The following applies: 100 nM in perfusate; 20 min zero-flow ischemia, 60 min reperfusion. How it is done: Experiments were performed using an isovolumic isolated rat heart preparation as as described by Hwang YC, Sato S, Tsai JY, Yan S, Bakr S, Zhang H, Oates PJ , Ramasamy R (2002), "Aldose reductase activation is a key component of myocardial response to ischemia," Faseb J. 16, 243-245 and Ramasamy R, Hwang YC, Whang J , Bergmann SR (2001), "Protection of ischemic hearts by high glucose is mediated, in part, by GLUT-4," American Journal of Physiology. 281, H290-297.
Male Wistar rats (300.350 g, 3 to 4 months old) were anesthetized with a mixture of ketamine (80 mg/kg) and xylazine (10 mg/kg). After deep anesthesia was achieved, hearts were rapidly excised, placed into iced saline, and retrogradely perfused at 37 °C in a non-recirculating mode through the aorta at a rate of 12.5 ml/min. Hearts were perfused with modified Krebs-Henseleit buffer containing (in mM) NaCl 118, KCl 4.7, CaCl2 2.5, MgCl2 1.2, NaHCO3 25, glucose 5, palmitate 0.4, bovine serum albumin 0.4, and 70 mU/L insulin. […] Left ventricular developed pressure (LVDP) and left ventricular end diastolic pressure (LVEDP) were measured using a latex balloon in the left ventricle. LVDP, heart rate, and coronary perfusion pressure were monitored continuously on a ADI recorder. […]
Briefly, isolated perfused hearts were subjected to ischemia reperfusion (I/R) injury and the measures of cardiac injury and cardiac function monitored. […]

Where [5] appears, read: attempted concentration 0.05 mg/mL.
[6] abbreviates: attempted concentration 0.1 mg/mL.
The mark [7] stands for this setting: attempted concentration 0.5 mg/mL.
Setting [8] is: attempted concentration 1 mg/mL.
Where [9] appears, read: attempted concentration 5 mg/mL.
Where [10] appears, read: attempted concentration 10 mg/mL.

One may read the inhibition as the share of the control response that was lost under treatment.

Regarding `O=C(O)Cc1nn(Cc2nc3cc(C(F)(F)F)ccc3s2)c(=O)c2ccccc12` [zopolrestat, reference compound], the “solubility in Krebs-Henseleit buffer” value in series [1] is “heat was applied to render zopolrestat soluble”. The “Area (Integration of Absorbance Peaks)” value in series [2] (setting [5]) turned out to be 1039247. In addition, the “Area (Integration of Absorbance Peaks)” value in series [2] (setting [6]) stood at 1899466. The “Area (Integration of Absorbance Peaks)” value in series [2] (setting [7]) was determined as 4304556. Moreover, the “Area (Integration of Absorbance Peaks)” value in series [2] (setting [8]) was 6129559. The “Area (Integration of Absorbance Peaks)” value in series [2] (setting [9]) turned out to be 13314544. Besides, in series [2] (setting [10]), the “Area (Integration of Absorbance Peaks)” value stood at 13362465. In series [3], the inhibition at 0.0001 µM amounted to 31.7 ± 5.1%, the inhibition at 0.001 µM stood at 39.3 ± 4.3%, the inhibition at 0.01 µM was determined as 52.2 ± 1.9% and the inhibition at 0.1 µM stood at 76.7 ± 2.7%. Moreover, in series [3], the inhibition at 1 µM is 86.3 ± 3.6%, the inhibition at 10 µM was 90.1 ± 3.4% and the inhibition at 100 µM is 93.2 ± 3.8%.

Take `O=C(O)Cc1nn(Cc2nc3cc(C(F)(F)F)ccc3s2)c(=O)c2nccnc12` [Compound A, 2-(8-oxo-7-((5-(trifluoromethyl)benzo[d]thiazol-2-yl)methyl)-7,8-dihydropyrazino[2,3-d]pyridazin-5-yl)acetic acid]: the “solubility in Krebs-Henseleit buffer” value in series [1] is “soluble without ay precipitation or turbidity”. In addition, in series [2] (ambient temperature, all concentrations), the “solubility in pH 7.1 water relative to Zopolrestat” value is given as “significantly greater solubility”. Also, the “Area (Integration of Absorbance Peaks)” value in series [2] (setting [5]) stood at 1811131. Further, the “Area (Integration of Absorbance Peaks)” value in series [2] (setting [6]) was found to be 3221003. The “Area (Integration of Absorbance Peaks)” value in series [2] (setting [7]) came to 5814304. Further, in series [2] (setting [8]), the “Area (Integration of Absorbance Peaks)” value came to 10515430. Also, the “Area (Integration of Absorbance Peaks)” value in series [2] (setting [9]) amounted to 17216187. For the same compound, in series [2] (setting [10]), the “Area (Integration of Absorbance Peaks)” value was found to be 20397336. Moreover, in series [3], the inhibition at 0.0001 µM was 69 ± 1.3%, the inhibition at 0.001 µM was 79.6 ± 2.4%, the inhibition at 0.01 µM is 80 ± 1.8% and the inhibition at 0.1 µM is 89.2 ± 0.7%. For the same compound, in series [3], the inhibition at 1 µM was found to be 93.6 ± 2.8%, the inhibition at 10 µM stood at 95.3 ± 1.1% and the inhibition at 100 µM came out at 96.2 ± 3.3%. Further, the “more active than zopolrestat in vitro against aldose reductase” value in series [3] (fold relative to zopolrestat) is given as “approximately 100 x”. Besides, in series [4], the “CK Release” value was “Compound A treated Rat hearts = 425±63 IU/g wet weight” and the “LVDP Recovery” value is given as “Compound A Treated Rat Hearts = 76±5 % of pre-ischemic values”.

The record behind these values is patent publication EP3597650B1, “ALDOSE REDUCTASE INHIBITORS AND USES THEREOF” (The Trustees of Columbia University in the City of New York, priority 2010, dated 2012).
